Data from patent US7118745B1, “Engineering antibodies that bind irreversibly” (The Regents of the University of California, priority 1999, dated 2006).

Assays:
native antibody CHA255 = assay: Control incubation of chelates with native antibody CHA255 (covalent labeling); type: biochemical, mouse; settings: indium chelates incubated with native antibody; BABE: after several hours
Method: As a control, the same chelates were incubated with native antibody CHA255, to see if they would covalently label it.

S95C Fab light chain = assay: Covalent cross-linking of 111In-labeled chelates to S95C Fab in culture medium (SDS-PAGE, phosphorimage); type: biochemical, mouse/human chimeric; settings: 111In-labeled chelate, culture medium containing S95C mutant, 30 minutes
Method: FIG. 18 is a phosphorimage of a 15% SDS-PAGE gel of samples incubated 30 minutes at 37° C. Chelates (CABE, CpABE, AABE, ABE) are in lanes 1–4, along with culture medium containing the S95C mutant. The (radiolabeled) band (at 26 kDa) in lane 1 is the crosslink between CABE (our positive control) and S95C Fab light chain. […] No crosslinks are observed with the non-nucleophilic native Fab, nor with the N96C mutant.
100 μl of complete culture medium from S2 cultures expressing each of the CHA255 Chimeric Fabs was mixed with 5 μl of 100 mM DOTA to sequester Cu^2+ from induction of expression. Each chelate was loaded with ^111In as previously described with a specific activity of 200 μCi. Complete metallation was analyzed by TLC as described previously. Specifically, 1 μl of chelate was added to 2.8 μl of 0.1 M citrate buffer (pH 5.5) to which was added 1.2 μl of carrier free ^111In (Nordion) ([…]) and the chelate was analyzed by TLC. 4 μl of loaded chelate was added to the 105 μl of Fab-DOTA in medium. This solution was incubated for 30 min. at room temperature. The reaction was stopped by separation of excess chelate by gel filtration spin chromatography (Penefsky column). 20 μl of eluant was added to 5 μl of sample application buffer containing β-mercaptoethanol (5×SDS PAGE SAB), boiled and reduced for 10 min. at 95° C. This was loaded onto a 1020% SDS-Page gel and electrophoriesed for 1 hr at 200V. The gel was fixed and dried via standard protocols and then exposed to a phosphorimager plate for 12 h. The plate was visualized with a Storm 640 phosphorimager (Molecular Dymanics).
In-labeled electrophilic chelates were incubated in Fab-containing culture medium to investigate whether either of the mutant antibodies would bind irreversibly to its target. Serum-containing culture medium was used as a representation of typical biological media. […] We incubated ^111In-labeled chelates bearing electrophilic acrylamido, chloroproprionamido, or chloroacetamido groups at physiological pH and temperature with raw tissue culture medium from the cells expressing the recombinant antibodies. As a control, an ^111In-labeled chelate bearing the non-electrophilic amino group was also included. At various times after addition of the radioactive chelates, we removed samples from the incubation and applied them to a gel filtration spin column to remove excess radiolabeled chelate.
The samples were analyzed by SDS-PAGE and visualized by phosphorimager. Separation under reducing and denaturing conditions on SDS-PAGE will separate the light chain from the heavy chain of each Fab, functionally destroying the antibody-binding pocket.

human serum albumin = human serum albumin (Homo sapiens, UniProt P02768); assay: Stability of 111In-labeled bifunctional chelates incubated with human serum albumin (TLC); type: in vitro ADME; settings: after 20 hrs; 20 mM Hepes, pH 7.4, 37° C.; 1 mM free sulfhydryl as human serum albumin
Method: The electrophilic chelates AABE, CABE, BABE were labeled with indium-111 and incubated in a Hepes buffered solution at physiological pH and temperature (20 mM Hepes, pH 7.4, 37° C.) containing 1 mM free sulfhydryl groups in the form of human serum albumin-approximating the concentration of thiols in plasma.
The reactive chelates 5–7 and aminobenzyl-EDTA (“ABE”) were labeled with ^111In and analyzed by TLC (50:50 Methanol/10% NaOAc pH8.2) to show complete chelation. To 0.5 mL of human serum albumin solution was added 2 μl of one of the labeled chelates. […] The vials were mixed by manual agitation, and 2 μl was removed and analyzed by TLC.
The fraction unreacted is plotted versus incubation time in FIG. 6. After 20 hrs, >95% of the In-AABE and In-CABE molecules were unreacted, while most of the In-BABE was attached to albumin. This confirmed the expectation that AABE and CABE are stable, and are good candidates for pretargeting. We infer that these chelates should be unreactive in blood for the length of time needed for pretargeting (40 min–4 hrs); if not, many other choices are available.

Chain of human serum albumin (P02768 25-609): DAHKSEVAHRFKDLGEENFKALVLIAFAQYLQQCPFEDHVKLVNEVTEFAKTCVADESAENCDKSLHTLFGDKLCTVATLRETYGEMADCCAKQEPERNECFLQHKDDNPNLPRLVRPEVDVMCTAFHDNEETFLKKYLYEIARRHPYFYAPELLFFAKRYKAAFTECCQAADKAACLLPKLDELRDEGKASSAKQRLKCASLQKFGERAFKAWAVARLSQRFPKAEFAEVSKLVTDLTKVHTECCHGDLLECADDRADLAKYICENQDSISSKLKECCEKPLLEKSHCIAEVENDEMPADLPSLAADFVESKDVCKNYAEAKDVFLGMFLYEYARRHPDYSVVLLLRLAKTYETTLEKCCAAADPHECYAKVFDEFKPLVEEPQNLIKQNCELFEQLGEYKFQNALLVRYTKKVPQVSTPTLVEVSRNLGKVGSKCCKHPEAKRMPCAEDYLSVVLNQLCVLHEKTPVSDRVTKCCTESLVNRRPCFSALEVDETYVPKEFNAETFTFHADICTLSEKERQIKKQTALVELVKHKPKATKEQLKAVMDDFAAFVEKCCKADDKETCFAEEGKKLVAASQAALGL

| SMILES | covalent attachment to native CHA255 (native antibody CHA255) | crosslink of chelate with S95C Fab light chain (radiolabeled 26 kDa band) (S95C Fab light chain) | crosslink of chelate with S95C Fab light chain (radiolabeled 26 kDa band) (S95C Fab light chain; listed as In-CABE) | chelate attached to albumin (human serum albumin) | crosslink of chelate with S95C Fab light chain (radiolabeled 26 kDa band) (S95C Fab light chain; listed as In-AABE) |
| --- | --- | --- | --- | --- | --- |
| Nc1ccc(CC(CN(CC(=O)O)CC(=O)O)N(CC(=O)O)CC(=O)O)cc1 (stereo not shown) [ABE, aminobenzyl-EDTA, reference compound] | did not covalently attach | does not show crosslinks | – | – | – |
| O=C(O)CN(CC(=O)O)CC(Cc1ccc(NC(=O)CCl)cc1)N(CC(=O)O)CC(=O)O (stereo not shown) [CABE, chloroacetylamidobenzyl] | did not covalently attach | crosslink | reacted equally well | – | – |
| O=C(O)CN(CC(=O)O)CC(Cc1ccc(NC(=O)CBr)cc1)N(CC(=O)O)CC(=O)O (stereo not shown) [BABE, bromoacetylamidobenzyl] | did react to some degree | – | – | most | – |
| C=CC(=O)Nc1ccc(CC(CN(CC(=O)O)CC(=O)O)N(CC(=O)O)CC(=O)O)cc1 (stereo not shown) [AABE, Acrylamidobenzyl-EDTA] | did not covalently attach | 26 kDa band | – | – | reacted equally well |
